Experimental data reported in PubChem BioAssay AID588339 (The Scripps Research Institute Molecular Screening Center, 2011).
Active and inactive are the calls of the source. The rule behind the calls is not given here.

Test system: TLR9-MyD88 CHO cells, cytotoxicity, luminescence
Experiment: cytotoxicity in TLR9-MyD88 CHO cells, dose response, cytotoxicity control for TLR9-MyD88 binding inhibitor project, cell-based, luminescence (AID 588339)

Row | SMILES | IC50
1 | C[CH2][Hg][S]c1ccccc1C(=O)O | 921 nM
2 | COc1cc(/C=C/C(=O)/C=C(O)/C=C/c2ccc(O)c(OC)c2)ccc1O | 34600 nM (inactive)
